# Like-named read-outs stand apart in the source and are kept apart here.
# Experiments:
# [1] = system: X-linked ichthyosis with severe dry skin; conditions: 3% cream under test chambers on forearm, subject
# Protocol: A solution containing a non-amphoteric glutathione derivative was prepared. N-Acetyl-glutathione diethyl ester 3 g was dissolved in warm propylene glycol 17 ml, and the solution was mixed with 80 g oil-in-water cream base or hydrophilic ointment. The cream contained 3% non-amphoteric N-acetyl-glutathione diethyl ester.
# A subject who had X-linked ichthyosis with severe dry skin participated in this study. Test spots were I cm square sites on extensor surface of forearm, a grid pattern formed by Hayes Test Chambers on Hayes adhesive strips. Each test chamber contained a square piece of filter paper which was fully saturated with the non-amphoteric glutathione derivative cream. Test chambers were impressed on the skin to leave outlines which were marked with SANFORD® SHARPIE® permanent marker. Sites were re-marked at each successive application of the test cream. Chambers were removed twice weekly, and replaced with a new adhesive strip of chambers with filter paper saturated with the test cream. The test was carried out for two weeks.
# chronic nummular eczema = conditions: 10% cream of Preparation Example 2, topically twice daily for two days, subject, right lower leg
# Protocol: A solution containing a non-amphoteric glutathione derivative was prepared. […] The solution was mixed uniformly with 70 g cream base.
# forearm skin = conditions: 5% solution with L-arginine; for increase in skin thickness: forearm
# Protocol: The combined thickness of two whole-skin layers including thickness of the two hinge leaves was measured with micrometer calipers. The thickness of the two hinge leaves was subtracted to determine the actual thickness of two whole-skin layers. Triplicate measurements on treated sites were done and an average number was used for calculation of the skin thickness.
# The solution thus prepared contained 5% non-amphoteric glutathione derivative. For comparative study, glutathione 5 g and L-arginine 1 g were dissolved in 94 ml solution prepared from water 70 parts and propylene glycol 30 parts. The solution thus prepared contained 5% amphoteric glutathione.
# A subject, applied topically twice daily the above 5% amphoteric glutathione solution to their left forearm and 5% non-amphoteric glutathione derivative to their right forearm for four weeks.
# A solution containing a non-amphoteric glutathione derivative was prepared. […] The solution thus prepared contained 5% non-amphoteric glutathione derivative.
# A subject, applied topically twice daily the above 5% non-amphoteric glutathione derivative to their right forearm for eight weeks.
# A subject, applied topically twice daily the above 5% non-amphoteric glutathione derivative to their left forearm for eight weeks.
# [2] = topically twice daily for four weeks, subject
smiles,measurement,setting,value
"CCOC(=O)CNC(=O)[C@H](CS)NC(=O)CC[C@H](NC(C)=O)C(=O)OCC [N-acetyl-glutathione diethyl ester, N-Acetyl-glutathione diethyl ester]","clinical evaluation, improvement of rough and scaly skin",[1]; after one week,90%
same,appearance of severe dry skin,[1]; after two weeks,smooth and normal-looking
"COC(=O)CNC(=O)[C@H](CS)NC(=O)CC[C@H](N)C(=O)OC.Cl [glutathione dimethyl ester, Glutathione dimethyl ester hydrochloride]",areas of the eczematous lesions reduced,chronic nummular eczema,75%
same,appearance of treated forearm skin,"forearm skin; topically twice daily for eight weeks, one subject per example","more firm, smooth, plump and minimally wrinkled when lifted"
same,increase in skin thickness,forearm skin; [2],10%
same,appearance of treated forearm skin,forearm skin; [2],"more firm, smooth, plump and minimally wrinkled when lifted"
N[C@@H](CCC(=O)N[C@@H](CS)C(=O)NCC(=O)O)C(=O)O [glutathione],increase in skin thickness,forearm skin; [2],no change
same,appearance of treated forearm skin,forearm skin; [2],"still loose, relatively thin and wrinkled when lifted"

# Source: patent publication US20040147452A1, “Non-amphoteric glutathione derivative compositions for tropical application” (priority 2002, published 2004)
